Where two headings read alike, the source gives them in different places.
Tests used:
PI3Kγ = PI3Kγ (Homo sapiens, UniProt P48736); assay: PI3K biochemical assay, PI3Kγ; conditions: PIP2 as substrate
Description: PI3Kα activity is measured as the percent of ATP consumed following the kinase reaction using luciferase-luciferin-coupled chemiluminescence. Reactions were conducted in 384-well white, medium binding microtiter plates (Greiner). Kinase reactions were initiated by combining test compounds, ATP, substrate (PIP2), and kinase in a 20 μL volume in a buffer solution. The standard PI3Kalpha assay buffer is composed 50 mM Tris, pH 7.5, 1 mM EGTA, 10 mM MgCl2, 1 mM DTT and 0.03% CHAPS. The standard assay concentrations for enzyme, ATP, and substrate are 1.5 nM, 1 μM, and 10 μM, respectively. The reaction mixture was incubated at ambient temperature for approximately 2 h. Following the kinase reaction, a 10 μL aliquot of luciferase-luciferin mix (Promega Kinase-Glo) was added and the chemiluminescence signal measured using a Victor2 plate reader (Perkin Elmer). Total ATP consumption was limited to 40-60% and IC50 values of control compounds correlate well with literature references. Substituting PI3Kα with PI3Kβ, PI3Kγ, or PI3Kδ, the inhibitory activity of the compounds for the other isoforms of I3K were measured.

[1] = tested on: MCF-7 cells (PI3Kα-E545K mutant); assay: pAKT (T308) ELISA assay, MCF-7; format: cell-based; conditions: Homo sapiens, MCF7
Description: MCF-7 cells (ATCC) cells were seeded at 24000 cells per well in 96-well plates (Corning, 3904) in DMEM (Cellgro) containing 10% FBS (Cellgro), 1% NEAA (Cellgro) and 1% penicillin-streptomycin (Cellgro). Cells were incubated at 37° C., 5% CO2 for 48 h, and the growth medium was replaced with serum-free DMEM or in medium containing 0.4% BSA. Serial dilutions of the test compound in 0.3% DMSO (vehicle) were added to the cells and incubated for 3 h. At the end of the incubation period, cells were stimulated for 10 minutes by the addition of L-IGF (Sigma, I-1271) at a final concentration of 100 ng/ml. Afterwards, media was discarded from cell plates and 110 μl/well of cold lysis buffer (see table below) were added. Cell plates were incubated on ice and then put on shaker in 4° C. cold room for 1 h. Two capture plates (Thermo Scientific, Reacti-bind plate, 15042) were prepared for each cell plate by pre-coating with capture Akt antibody from the two sandwich ELISA antibody pairs used (Cell Signaling Technology 7142 and 7144). The Akt capture antibodies were diluted 1:100 in PBS and […] of diluted capture antibody was added per well. […] After 1 minute incubation, chemiluminescence was read on a Wallac Victor2 1420 multilabel counter. IC50 values were determined based on the ratio of pAkt(T308) to total Akt1 signal for compound treated wells, normalized to the DMSO-treated control wells. […]

Sequence of PI3Kγ (P48736 whole entry): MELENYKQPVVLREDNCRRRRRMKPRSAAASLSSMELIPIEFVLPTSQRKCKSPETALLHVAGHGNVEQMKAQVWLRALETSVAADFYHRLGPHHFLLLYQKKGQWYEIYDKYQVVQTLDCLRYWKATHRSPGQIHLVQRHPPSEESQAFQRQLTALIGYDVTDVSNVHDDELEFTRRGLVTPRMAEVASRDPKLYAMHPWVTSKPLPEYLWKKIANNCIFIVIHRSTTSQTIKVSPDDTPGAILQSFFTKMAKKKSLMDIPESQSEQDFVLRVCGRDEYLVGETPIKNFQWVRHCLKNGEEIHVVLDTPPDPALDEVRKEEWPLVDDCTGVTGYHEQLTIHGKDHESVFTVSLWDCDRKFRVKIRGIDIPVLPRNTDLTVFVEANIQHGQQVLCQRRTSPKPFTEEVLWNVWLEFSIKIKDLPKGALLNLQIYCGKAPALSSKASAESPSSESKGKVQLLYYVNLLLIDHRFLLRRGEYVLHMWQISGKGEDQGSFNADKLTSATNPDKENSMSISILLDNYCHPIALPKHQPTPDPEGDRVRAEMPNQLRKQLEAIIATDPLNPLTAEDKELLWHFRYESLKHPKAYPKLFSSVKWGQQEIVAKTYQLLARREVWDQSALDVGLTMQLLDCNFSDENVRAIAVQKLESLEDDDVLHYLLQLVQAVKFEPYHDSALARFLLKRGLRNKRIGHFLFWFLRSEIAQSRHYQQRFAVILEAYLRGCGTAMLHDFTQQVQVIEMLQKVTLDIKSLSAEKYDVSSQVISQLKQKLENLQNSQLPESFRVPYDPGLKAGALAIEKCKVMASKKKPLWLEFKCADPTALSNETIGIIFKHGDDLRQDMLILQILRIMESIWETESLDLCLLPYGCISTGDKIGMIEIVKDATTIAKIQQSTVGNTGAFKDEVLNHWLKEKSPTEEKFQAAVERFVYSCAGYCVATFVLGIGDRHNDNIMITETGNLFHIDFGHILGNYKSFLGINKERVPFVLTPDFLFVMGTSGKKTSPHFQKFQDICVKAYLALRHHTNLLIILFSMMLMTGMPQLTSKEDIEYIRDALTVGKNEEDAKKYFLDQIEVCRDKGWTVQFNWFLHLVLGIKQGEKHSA

An IC50 (PI3Kγ) of 1680 nM, an IC50 ([1]; IGF1 stimulation, Table 5, read-out: pAKT (T308) IC50 MCF-7 PI3Kα E545K IGF1) of 1760 nM and an IC50 ([1]; PI3KαE545K, Table 6, read-out: Cellular pAKT (T308) IC50 MCF-7) greater than 30000 nM were found for `Cc1cc(C(C)Nc2ccccc2)c2nc(N3CCOCC3)cc(=O)n2c1` (stereo not drawn) [TGX-221, 7-methyl-2-(4-morpholinyl)-9-[1-(phenylamino)ethyl]-4H-pyrido[1,2-a]pyrimidin-4-one] in this work.
